Experimental data reported in patent US20140005268A1, “PHARMACEUTICAL COMPOSITION FOR TREATING OXIDATIVE STRESS-INDUCED PATHOLOGY AND USE THEREOF” (priority 2011, published 2014).

Tested on: hemorrhoids (Goligher type I, II, III and IV)
Test: Clinical test of rectally administered suppositories in volunteers with hemorrhoids (Goligher's classification)
Format: in vivo
Conditions: adult human beings of both genders, 20 to 80 years old, daily dosage as in Table 1, average ± standard error, n=20
Experimental: For such, various volunteers were randomly selected.
In short, volunteers, aging from 20 to 80 years old, were tested and observed for 28 days by rectally administering suppositories of 2 g each, containing the active ingredients in the indicated proportion: methionine (170 mg/day), cysteine (20 mg/day) and phenylalanine (10 mg/day) each.
The indicated values in the Table are average values in 20 experiments±standard errors (n=20).

Row | SMILES | Bleeding inhibition after 72 h (%) | Relapse after 5 years (%)
1 | N[C@@H](CS)C(=O)O [L-cysteine] | 10 ± 1 | 80 ± 8
2 | CSCC[C@H](N)C(=O)O [L-methionine] | 70 ± 7 | 15 ± 2
3 | N[C@@H](Cc1ccccc1)C(=O)O [L-phenylalanine] | 2 ± 1 | 90 ± 9
